From ChEMBL document CHEMBL1201862, “PubChem BioAssay data set” (2004)
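Protocol summary: plate cells (96-well), add compound at 5 concentrations, incubate 48 h, interpolate endpoints linearly. GI50 is the concentration that inhibits growth by half.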 Active and inactive are the calls of the source. Cut-off read from the data, not from the text of the source: active = GI50 up to about 1.1 µM and inactive = higher.

Assays:
Experiment in all cases: growth of human tumour cells (NCI), 48 h
[1] = tested on: T47D
[2] = tested on: HT-29
[3] = tested on: RPMI-8226
[4] = tested on: A498
[5] = tested on: IGROV-1
[6] = tested on: MDA-N
[7] = tested on: HCC 2998
[8] = tested on: TK-10
[9] = tested on: SF-539
[10] = tested on: OVCAR-3
[11] = tested on: HCT-15
[12] = tested on: COLO 205
[13] = tested on: SN12C
[14] = tested on: BT-549
[15] = tested on: K562
[16] = tested on: LOX IMVI
[17] = tested on: RXF 393
[18] = tested on: UO-31
[19] = tested on: Hs-578T
[20] = tested on: MCF7
[21] = tested on: OVCAR-5
[22] = tested on: SK-MEL-5
[23] = tested on: Malme-3M
[24] = tested on: 786-0
[25] = tested on: NCI-H226
[26] = tested on: PC-3
[27] = tested on: NCI-H522
[28] = tested on: SW-620
[29] = tested on: SF-295
[30] = tested on: EKVX
[31] = tested on: SK-MEL-28
[32] = tested on: HL-60
[33] = tested on: CAKI-1
[34] = tested on: NCI-H23
[35] = tested on: ACHN
[36] = tested on: MOLT-4
[37] = tested on: NCI/ADR-RES
[38] = tested on: SNB-75
[39] = tested on: OVCAR-8
[40] = tested on: MDA-MB-435
[41] = tested on: SK-OV-3
[42] = tested on: A549
[43] = tested on: UACC-62
[44] = tested on: HOP-62
[45] = tested on: OVCAR-4
[46] = tested on: MDA-MB-231
[47] = tested on: SF-268
[48] = tested on: M14
[49] = tested on: KM12
[50] = tested on: NCI-H460
[51] = tested on: U-251
[52] = tested on: DU-145
[53] = tested on: SR
[54] = tested on: HOP-92
[55] = tested on: HCT-116
[56] = tested on: SNB-19
[57] = tested on: SK-MEL-2
[58] = tested on: UACC-257
[59] = tested on: CCRF-CEM

For `COC1(CC[C@H](C)COC2OC(CO)C(O)C(O)C2O)O[C@H]2C[C@H]3[C@@H]4CC=C5C[C@@H](OC6OC(CO)C(O)C(OC7OC(CO)C(O)C(O)C7O)C6OC6OC(C)C(O)C(O)C6O)CC[C@]5(C)[C@H]4CC[C@]3(C)[C@H]2[C@@H]1C` (some centres undefined), the GI50 [1] was 2.61 µM (inactive), the GI50 [2] was 4.57 µM (inactive) and the GI50 [3] was 2.54 µM (inactive). For the same compound, the GI50 [4] was 17.8 µM (inactive), the GI50 [5] was 3.73 µM (inactive) and the GI50 [6] was 8.81 µM (inactive). For the same compound, the GI50 [7] was 4.86 µM (inactive), the GI50 [8] was 21.2 µM (inactive) and the GI50 [9] was 2.17 µM (inactive). For the same compound, the GI50 [10] was 16.7 µM (inactive), the GI50 [11] was 2.96 µM and the GI50 [12] was 4.08 µM (inactive). For the same compound, the GI50 [13] was 5.41 µM (inactive), the GI50 [14] was 7.6 µM (inactive) and the GI50 [15] was 4.88 µM (inactive). The GI50 [16] was 2.68 µM (inactive), the GI50 [17] was 4.24 µM (inactive) and the GI50 [18] was 2.14 µM (inactive). The GI50 [19] was 11 µM (inactive), the GI50 [20] was 9.2 µM (inactive) and the GI50 [21] was 6.07 µM (inactive). The GI50 [22] was 5.27 µM (inactive), the GI50 [23] was 2.5 µM (inactive) and the GI50 [24] was 2.32 µM (inactive). The GI50 [25] was 6.49 µM (inactive), the GI50 [26] was 4.3 µM (inactive) and the GI50 [27] was 2.94 µM (inactive). The GI50 [28] was 2.81 µM (inactive), the GI50 [29] was 3.3 µM (inactive) and the GI50 [30] was 15.9 µM (inactive). For the same compound, the GI50 [31] was 2.31 µM (inactive), the GI50 [32] was 3.12 µM (inactive) and the GI50 [33] was 5.45 µM (inactive). The GI50 [34] was 6.52 µM (inactive), the GI50 [35] was 13.3 µM (inactive) and the GI50 [36] was 3.15 µM (inactive). For the same compound, the GI50 [37] was 9.44 µM (inactive), the GI50 [38] was 2.55 µM (inactive) and the GI50 [39] was 3.03 µM (inactive). For the same compound, the GI50 [40] was 1.87 µM (inactive), the GI50 [41] was 12.1 µM (inactive) and the GI50 [42] was 2.73 µM (inactive). For the same compound, the GI50 [43] was 3.7 µM (inactive), the GI50 [44] was 5.51 µM (inactive) and the GI50 [45] was 5.28 µM (inactive). The GI50 [46] was 3.7 µM (inactive), the GI50 [47] was 4.89 µM (inactive) and the GI50 [48] was 2.84 µM (inactive). The GI50 [49] was 1.98 µM (inactive), the GI50 [50] was 3.62 µM (inactive) and the GI50 [51] was 2.12 µM (inactive). For the same compound, the GI50 [52] was 2 µM (inactive), the GI50 [53] was > 100 µM (inactive) and the GI50 [54] was 3.37 µM (inactive). For the same compound, the GI50 [55] was 4.5 µM (inactive), the GI50 [56] was 7.31 µM (inactive) and the GI50 [57] was 8.77 µM (inactive). For the same compound, the GI50 [58] was 5.73 µM (inactive) and the GI50 [59] was 3.17 µM (inactive).
